Experimental data: PMC9137037 (Frontiers in Oncology, 2022)
Where no end group is shown, it is not given here.

Tests used:
[1] = tested on: BALB/c mice; assay: ELISA antibody titers in sera of immunized BALB/c mice; assay type: in vivo; conditions: mouse; Figure 1C
Method: The peptide vaccine MVF-PD-1(92-110) was dissolved in sterile water and mixed with either ISA 720 or ISA 51 (1:1) ratio. We utilized the well-established murine colon carcinoma cell line CT26 tumor model in syngeneic BALB/c mice to evaluate the effects of vaccination previously described ([23]). Briefly, 6–8-week-old female BALB/c mice were immunized with the peptide vaccine, and 2 weeks after the third immunization, the mice were challenged with 1×10^5 CT26 colon cancer cells by subcutaneous injection (SC). The CT26 cancer cell line was maintained in the DMEM medium with 10% FBS 5% CO2 at 37 °C. […] Tumor growth was monitored daily, especially 7 days after the tumor challenge. […]
(§1) Enzyme-linked immunosorbent assay (ELISA) was performed per our lab standard procedure. […] After washing, the antibody was detected using 50 μl of 0.15% H2O2 in 24 mM of citric acid and 5 mM of the sodium phosphate buffer (pH5.2) with 0.5 mg/ml 2, […] (3-ethylbenzthiazole- 6-sulfonic acid, ABTS; Sigma, St. Louis, MO, USA) as the chromophore. […] Absorbance was read at 415 nm using an ELISA microplate reader (SPECTRAmax PLUS384; Molecular Devices, San Jose, CA, USA). The highest dilution at the cutoff absorbance 0.2 were determined as the antibody titer. […]

[2] = tested on: cynomolgus monkeys; assay: ELISA antibody titers, monkey study No.00213515; assay type: in vivo, Macaca fascicularis; conditions: monkey 1st set, 0.5, 2, 5 mg/dose, 2-week interval, ISA 720
Method: The non-human primate studies were carried out by the Charles River Laboratories (Ashland, OH USA). All the cynomolgus monkeys (Macaca fascicularis of Chinese origin) were obtained from Charles River Laboratories (Houston, TX, USA). In brief, the animals were approximately 2–4 years old and at the body weight between 2.2 and 3.1 kg at the initial dosing. The animals were kept at the temperature between 19°C and 24°C, humidity 30%–70%, and with 12 h light and 12 h dark light cycle. The Good manufacturing practice (GMP)-manufactured vaccine was used in the non-human primate study. […] Similar to mouse and dog dosing preparation, after the emulsion was prepared, a drop test was performed on each time of dosing to confirm that the emulsion had been prepared properly. […] All the animals’ body weights were monitored weekly after receiving. […]
as §1

KLLSLIKGVIVHRLEGVEGPSLGAISLAPKAQIKESLRAEL [MVF-PD-1(92-110)]
immunogenicity (summary) [1]: High immunogenicity ( Figure 1C ); | immunogenicity (summary) [2]: high immunogenicity
